# In US20250170239A1, “CELLULAR REPROGRAMMING BY TARGETING THE GOLGI APPARATUS” (MUSC Foundation for Research Development, priority 2023, published 2025):
# Read-outs that look alike come from different tables or passages of the source.
# Key:
# human PBMCs = settings: vehicle control or 0.5 mM GYY4137
# Description: (FIG. 21A) Levels of intracellular glutathione assessed using FACS by employing ThiolTracker Violet dye in control CD19 CAR-T cells or CAR-T cells overexpressing Cbs (CbstdCD19-CAR-T) (n=3). (FIG. 21B) 12 hour Thapsigargin (700 nM) treatment was used to induce ER stress in WT T cells, Cbs-KO T cells, and Cbs-KO T cells+H2S. Levels of phosphorylated PERK were assessed by FACS (n=3). (FIG. 21C) Pmel T cells were treated with either Thapsigargin (700 nM) or Monensin (1 mM) for 12 hours, followed by staining for phosphorylated PERK (p-PERK) and GM130 to assess ER stress and Golgi stress, respectively (n=4). (FIG. 21D) Activated Pmel T cells were treated for 12 hours with either vehicle control or 1 mM Monensin (“+Golgi stress”) before being stained for giantin to assess Golgi dispersion. […] (FIG. 21E) Representative confocal microscopy images of mitochondria (Tom20) and Golgi (giantin) in human PBMCs treated with vehicle control or 0.5 mM GYY4137.
# Alexa Fluor 488 (anti-Giantin) and Alexa Fluor 647 (anti-TOMM20) fluorescence were imaged in a Zeiss LSM 880 NLO inverted laser scanning confocal microscope (Thornwood, NY) using a 63× 1.4 N.A. plan-apochromat oil immersion lens. Alexa Fluor 488 and Alexa Fluor 647 were excited at 488 nm and 633 nm, respectively. Emitted light was detected with an Airyscan super-resolution detector at BP 495-550 nm for Giantin label and LP 654 nm for TOMM20. […]
# Jurkat cells = settings: 50 mM H2O2 +/− GYY4137; wildtype vs C51A Prdx4
# Description: (§1) (FIG. 22A) Pmel T cells were activated for 3 days before treatment with vehicle or 50 mM H2O2 for 6 hrs. Prdx4-Golgi colocalization was assessed by PLA using mouse anti-Giantin and rabbit anti-Prdx4 antibodies. (FIG. 22B) Activated Pmel T cells treated with vehicle or 50 mM H2O2 for 6 hrs or 24 hrs with Monensin (1 mM). PLA assay was performed using anti-Giantin and anti-Prdx4 antibodies. (FIG. 22C) Experimental design using Prdx4-targeted siRNA to silence expression of Prdx4 in Pmel T cells. (FIG. 22D) GM130 expression assessed under control versus Monensin (1 μM) conditions in T cells treated with control-siRNA or Prdx4-siRNA. (FIG. 22E) GM130 expression assessed under control versus 50 mM H2O2 conditions in T cells treated with control-siRNA or Prdx4-siRNA+/−0.5 mM GYY4137. (FIG. 22F) Protein translation assessed in Pmel T cells activated+/−GYY4137 and treated with control-siRNA or Prdx4-siRNA. (FIG. 22G) GM130 expression in Pmel T cells treated with vehicle, GYY4137, or Catalase (10 μg/mL). (FIGS. 22H and 22I) Site directed mutagenesis performed to mutate cysteine-54 of the Prdx4 gene. Prdx4-targeted shRNA was used to knock down expression of Prdx4 in Jurkat T cells, followed by transfection with plasmid containing wildtype or mutated Prdx4. (FIG. 22I) GM130 expression assessed after treatment with 50 mM H2O2+/−GYY4137. […]
# [1] = tested on: Prdx4-Golgi colocalization; settings: 50 mM H2O2 24 hrs
# Description: as §1
# [2] = in culture; cited from earlier work
# [3] = tested on: phospho-PERK, phospho-IRE1a, ATF4; settings: 12-hr incubation with 50 mM H2O2
# Pmel CD8+ T cells = settings: for Golgi stress (GM130 expression): TME exhaustion model
# Text: The solid tumor microenvironment is characterized as being highly immunosuppressive, leading to T cell exhaustion. Thus, an in vitro model of TME-induced T cell exhaustion using supernatants collected from B16-F10 murine melanoma cells along with chronic antigen stimulation was used.25 Pmel CD8+ T cells were activated and cultured under optimal culture conditions, with tumor supernatant plus repeated stimulation with gp100, or with tumor supernatant plus repeated stimulation with gp100 plus H2S donor (FIG. 12I). This model was used to determine the impact of T cell exhaustion on Cbs expression and H2S production by gating Pmel T cells on TIM3+PD1+ (terminally exhausted) and TIM3−PD1− cells.
# Once the tumors reached a size of approximately 150 mm2, the mice were euthanized and the tumors were removed. The tumors were then processed into single cell suspension using a mouse tumor dissociation kit (Miltenyi, #130-096-730). […] After 5 days of culture without changing the media, the supernatant was removed from the wells and spun down to remove any tumor cells. 3-day activated Pmel T cells were then resuspended in the tumor supernatant along with 0.1 ug/mL of gp100 antigen. To promote chronic antigen stimulation, 0.1 μg/mL gp100 was added every day for 4 days. After 4 days of culture with tumor supernatant and chronic stimulation, the T cells were removed and analyzed for expression of exhaustion markers and functional assays.
# [4] = tumor supernatant + repeated gp100 +/− 0.5 mM GYY4137
smiles,measurement,setting,value
C1COCCN1.COc1ccc(P(=S)(S)N2CCOCC2)cc1 (stereo not shown) [GYY4137],"Golgi organization (giantin, confocal)",human PBMCs,more compact Golgi organization
same,protective effect on H2O2-induced Golgi stress (GM130),Jurkat cells,only observed in Jurkat cells expressing wildtype Prdx4
same,loss of Prdx4 localization within the Golgi under prolonged oxidative stress,[1],loss of colocalization was mitigated
same,duration of sustained H2S release,[2],up to 7 days
same,"oxidative stress-induced increase of phospho-PERK, phospho-IRE1a, ATF4",[3],this increase was mitigated
same,Golgi stress (GM130 expression),Pmel CD8+ T cells,reverted
same,Golgi stress (GM130 expression),Pmel CD8+ T cells; listed as H2S donor,decrease in GM130 expression was mitigated
same,ER stress (high phosphorylated-PERK),Pmel CD8+ T cells; in vitro TME exhaustion model,mitigated
same,Tcm phenotype,Pmel CD8+ T cells; [4],preserve the Tcm phenotype
same,"expression of exhaustion markers PD1, TIM3, Lag3, CD38",Pmel CD8+ T cells; [4],"decreased expression of T cell exhaustion markers PD1, TIM3, Lag3, and CD38"
